Key:
[1] = species on record: Homo sapiens; experiment: Inhibition of UBE1/UbcH5a/SCFFbw7/Cyclin E1 (unknown origin) assessed as protein activity at […] by electrochemiluminescence based ubiquitin profiler panel assay; set-up: scale not given: the % may be the effect or the level left
[2] = species on record: Homo sapiens; experiment: Inhibition of UBE1/UbcH3/SCFbTrCP1/IkBa (unknown origin) assessed as protein activity at […] by electrochemiluminescence based ubiquitin profiler panel assay; set-up: scale not given: the % may be the effect or the level left
[3] = species on record: Homo sapiens; experiment: Inhibition of UBE1/UbcH4/SCFbTrCP1/IkBa (unknown origin) assessed as protein activity at […] by electrochemiluminescence based ubiquitin profiler panel assay; set-up: scale not given: the % may be the effect or the level left
[4] = species on record: Homo sapiens; experiment: Inhibition of UBE1/UbcH3/SCFbTrCP1/b-catenin (unknown origin) assessed as protein activity at […] by electrochemiluminescence based ubiquitin profiler panel assay; set-up: scale not given: the % may be the effect or the level left
[5] = species on record: Homo sapiens; experiment: Inhibition of UBE1/UbcH4/SCFbTrCP1/b-catenin (unknown origin) assessed as protein activity at […] by electrochemiluminescence based ubiquitin profiler panel assay; set-up: scale not given: the % may be the effect or the level left
[6] = species on record: Homo sapiens; experiment: Inhibition of UBE1/UbcH4/MDM2/CK1d/p53 (unknown origin) assessed as protein activity at […] by electrochemiluminescence based ubiquitin profiler panel assay; set-up: scale not given: the % may be the effect or the level left
[7] = species on record: Homo sapiens; experiment: Inhibition of UBE1/UbcH5c/MDM2/CK1d/p53 (unknown origin) assessed as protein activity at […] by electrochemiluminescence based ubiquitin profiler panel assay; set-up: scale not given: the % may be the effect or the level left
[8] = species on record: Homo sapiens; experiment: Inhibition of UBE1/UbcH4/MDM2/MDM2(Auto) (unknown origin) assessed as protein activity at […] by electrochemiluminescence based ubiquitin profiler panel assay; set-up: scale not given: the % may be the effect or the level left
[9] = species on record: Homo sapiens; experiment: Inhibition of UBE1/UbcH5c/MDM2/MDM2(Auto) (unknown origin) assessed as protein activity at […] by electrochemiluminescence based ubiquitin profiler panel assay; set-up: scale not given: the % may be the effect or the level left
[10] = species on record: Homo sapiens; experiment: Inhibition of UBE1/UbcH4/c-Cbl/Src (unknown origin) assessed as protein activity at […] by electrochemiluminescence based ubiquitin profiler panel assay; set-up: scale not given: the % may be the effect or the level left
[11] = species on record: Homo sapiens; experiment: Inhibition of UBE1/UbcH4/c-Cbl/Kit (unknown origin) assessed as protein activity at […] by electrochemiluminescence based ubiquitin profiler panel assay; set-up: scale not given: the % may be the effect or the level left
[12] = species on record: Homo sapiens; experiment: Inhibition of UBE1/UbcH4/VHL/HIF-1a (unknown origin) assessed as protein activity at […] by electrochemiluminescence based ubiquitin profiler panel assay; set-up: scale not given: the % may be the effect or the level left
[13] = species on record: Homo sapiens; experiment: Inhibition of UBE1/UbcH5a/VHL/HIF-1a (unknown origin) assessed as protein activity at […] by electrochemiluminescence based ubiquitin profiler panel assay; set-up: scale not given: the % may be the effect or the level left
[14] = species on record: Homo sapiens; experiment: Inhibition of UBE1/UbcH5c/VHL/HIF-1a (unknown origin) assessed as protein activity at […] by electrochemiluminescence based ubiquitin profiler panel assay; set-up: scale not given: the % may be the effect or the level left
[15] = species on record: Homo sapiens; experiment: Inhibition of UBE1/UbcH7/Parkin/Parkin(Auto) (unknown origin) assessed as protein activity at […] by electrochemiluminescence based ubiquitin profiler panel assay; set-up: scale not given: the % may be the effect or the level left
[16] = species on record: Homo sapiens; experiment: Inhibition of UBE1/UbcH7/Parkin/p38/JTV-1 (unknown origin) assessed as protein activity at […] by electrochemiluminescence based ubiquitin profiler panel assay; set-up: scale not given: the % may be the effect or the level left
[17] = species on record: Homo sapiens; experiment: Inhibition of UBE1/UbcH13/Uev1A/CHIP/p53 (unknown origin) assessed as protein activity at […] by electrochemiluminescence based ubiquitin profiler panel assay; set-up: scale not given: the % may be the effect or the level left
[18] = species on record: Homo sapiens; experiment: Inhibition of UBE1/UbcH13/Uev1A/CHIP/Hsp70 (unknown origin) assessed as protein activity at […] by electrochemiluminescence based ubiquitin profiler panel assay; set-up: scale not given: the % may be the effect or the level left
[19] = species on record: Homo sapiens; experiment: Inhibition of UBE1/UbcH13/Uev1A/CHIP/CHIP(Auto) (unknown origin) assessed as protein activity at […] by electrochemiluminescence based ubiquitin profiler panel assay; set-up: scale not given: the % may be the effect or the level left
[20] = species on record: Homo sapiens; experiment: Inhibition of UBE1/UbcH5c/MuRF1/Cardiac Troponin (unknown origin) assessed as protein activity at […] by electrochemiluminescence based ubiquitin profiler panel assay; set-up: scale not given: the % may be the effect or the level left
[21] = species on record: Homo sapiens; experiment: Inhibition of UBE1/UbcH6/Parkin/Parkin(Auto) (unknown origin) assessed as protein activity at […] by electrochemiluminescence based ubiquitin profiler panel assay; set-up: scale not given: the % may be the effect or the level left
[22] = species on record: Homo sapiens; experiment: Inhibition of UBE1/UbcH6/Parkin/p38/JTV-1 (unknown origin) assessed as protein activity at […] by electrochemiluminescence based ubiquitin profiler panel assay; set-up: scale not given: the % may be the effect or the level left
[23] = system: A-431; experiment: Antiproliferative activity against human A431 cells incubated for 48 hrs by SRB assay; type: functional; conditions: A-431, 48 h
[24] = system: KATO III stomach cancer cell line; experiment: Antiproliferative activity against human KATO III cells incubated for 48 hrs by SRB assay; type: functional
[25] = system: U-87 MG; experiment: Antiproliferative activity against human U87MG cells incubated for 48 hrs by SRB assay; type: functional, U-87MG ATCC
[26] = system: Hep 3B2; experiment: Antiproliferative activity against human Hep3B cells incubated for 48 hrs by SRB assay; type: functional
[27] = system: HepG2; experiment: Antiproliferative activity against human HepG2 cells incubated for 48 hrs by SRB assay; type: functional; conditions: HepG2, 48 h
[28] = system: A498; experiment: Antiproliferative activity against human A498 cells incubated for 48 hrs by SRB assay; type: functional; conditions: A498, 48 h
[29] = system: ACHN; experiment: Antiproliferative activity against human ACHN cells incubated for 48 hrs by SRB assay; type: functional
[30] = system: MOLT-4; experiment: Antiproliferative activity against human MOLT4 cells incubated for 48 hrs by SRB assay; type: functional; conditions: MOLT-4, 48 h
[31] = system: HL-60; experiment: Antiproliferative activity against human HL60 cells incubated for 48 hrs by SRB assay; type: functional; conditions: HL-60, 48 h
[32] = system: K562; experiment: Antiproliferative activity against human K562 cells incubated for 48 hrs by SRB assay; type: functional; conditions: K562, 48 h

Activity [1]: 100%
Activity [2]: 102%
Activity [3]: 91%
Activity [4]: 101%
Activity [5]: 68%
Activity [6]: 71%
Activity [7]: 75%
Activity [8]: 92%
Activity [9]: 105%
Activity [10]: 89%
Activity [11]: 86%
Activity [12]: 96%
Activity [13]: 95%
Activity [14]: 100%
Activity [15]: 65%
Activity [16]: 72%
Activity [17]: 52%
Activity [18]: 93%
Activity [19]: 65%
Activity [20]: 92%
Activity [21]: 61%
Activity [22]: 79%
GI50 [23]: 1200 nM
GI50 [24]: 2400 nM
GI50 [25]: 2500 nM
GI50 [27]: 3600 nM
GI50 [29]: 2700 nM
GI50 [30]: 4000 nM
GI50 [31]: 1600 nM
GI50 [32]: 1700 nM
SMILES: O=C(Nc1ccncc1)c1ccc(CNC2=C(Cl)C(=O)c3ccccc3C2=O)cc1
GI50 [26]: 1400 nM
GI50 [28]: 3500 nM
